Test: xn = mol fraction of the nth substance listed
Details: 100 kPa, Liquid; for viscosity: Falling or rolling sphere viscometry; for mass density: Vibrating tube method

CCCCC1CCCCC1 [butylcyclohexane] + CCCCCCCCCCCC
Details	mass density [kg/m3]	viscosity [mPa·s]
293.15 K, x2 = 0	799.34	1.305
293.15 K, x2 = 0.1017	792.77	1.319
293.15 K, x2 = 0.1996	786.82	1.334
293.15 K, x2 = 0.2951	781.36	1.348
293.15 K, x2 = 0.4221	774.55	1.369
293.15 K, x2 = 0.5126	769.99	1.384
293.15 K, x2 = 0.6256	764.59	1.404
293.15 K, x2 = 0.7002	761.2	1.418
293.15 K, x2 = 0.7989	756.92	1.437
293.15 K, x2 = 0.9012	752.7	1.457
298.15 K, x2 = 0	795.59	1.202
298.15 K, x2 = 0.1017	789.05	1.215
298.15 K, x2 = 0.1996	783.12	1.228
298.15 K, x2 = 0.2951	777.68	1.241
298.15 K, x2 = 0.4221	770.9	1.258
298.15 K, x2 = 0.5126	766.35	1.272
298.15 K, x2 = 0.6256	760.96	1.289
298.15 K, x2 = 0.7002	757.57	1.3
298.15 K, x2 = 0.7989	753.3	1.318
298.15 K, x2 = 0.9012	749.09	1.335
303.15 K, x2 = 0	791.84	1.112
303.15 K, x2 = 0.1017	785.32	1.123
303.15 K, x2 = 0.1996	779.41	1.135
303.15 K, x2 = 0.2951	773.99	1.146
303.15 K, x2 = 0.4221	767.22	1.162
303.15 K, x2 = 0.5126	762.68	1.173
303.15 K, x2 = 0.6256	757.3	1.187
303.15 K, x2 = 0.7002	753.92	1.197
303.15 K, x2 = 0.7989	749.66	1.211
303.15 K, x2 = 0.9012	745.45	1.226
308.15 K, x2 = 0	788.07	1.033
308.15 K, x2 = 0.1017	781.58	1.043
308.15 K, x2 = 0.1996	775.69	1.053
308.15 K, x2 = 0.2951	770.28	1.063
308.15 K, x2 = 0.4221	763.53	1.076
308.15 K, x2 = 0.5126	759.01	1.086
308.15 K, x2 = 0.6256	753.64	1.1
308.15 K, x2 = 0.7002	750.27	1.108
308.15 K, x2 = 0.7989	746.01	1.122
308.15 K, x2 = 0.9012	741.81	1.137
313.15 K, x2 = 0	784.3	0.963
313.15 K, x2 = 0.1017	777.82	0.971
313.15 K, x2 = 0.1996	771.96	0.98
313.15 K, x2 = 0.2951	766.57	0.989
313.15 K, x2 = 0.4221	759.84	1.001
313.15 K, x2 = 0.5126	755.32	1.009
313.15 K, x2 = 0.6256	749.97	1.021
313.15 K, x2 = 0.7002	746.6	1.029
313.15 K, x2 = 0.7989	742.35	1.041
313.15 K, x2 = 0.9012	738.16	1.054
318.15 K, x2 = 0	780.52	0.901
318.15 K, x2 = 0.1017	774.07	0.908
318.15 K, x2 = 0.1996	768.22	0.915
318.15 K, x2 = 0.2951	762.85	0.923
318.15 K, x2 = 0.4221	756.14	0.934
318.15 K, x2 = 0.5126	751.63	0.942
318.15 K, x2 = 0.6256	746.29	0.952
318.15 K, x2 = 0.7002	742.93	0.959
318.15 K, x2 = 0.7989	738.69	0.969
318.15 K, x2 = 0.9012	734.5	0.98
323.15 K, x2 = 0	776.74	0.844
323.15 K, x2 = 0.1017	770.3	0.851
323.15 K, x2 = 0.1996	764.47	0.858
323.15 K, x2 = 0.2951	759.12	0.864
323.15 K, x2 = 0.4221	752.42	0.874
323.15 K, x2 = 0.5126	747.93	0.881
323.15 K, x2 = 0.6256	742.6	0.89
323.15 K, x2 = 0.7002	739.25	0.896
323.15 K, x2 = 0.7989	735.02	0.905
323.15 K, x2 = 0.9012	730.84	0.915
328.15 K, x2 = 0	772.93	0.794
328.15 K, x2 = 0.1017	766.52	0.8
328.15 K, x2 = 0.1996	760.71	0.806
328.15 K, x2 = 0.2951	755.37	0.812
328.15 K, x2 = 0.4221	748.7	0.821
328.15 K, x2 = 0.5126	744.22	0.827
328.15 K, x2 = 0.6256	738.9	0.834
328.15 K, x2 = 0.7002	735.56	0.84
328.15 K, x2 = 0.7989	731.33	0.848
328.15 K, x2 = 0.9012	727.16	0.858
333.15 K, x2 = 0	769.13	0.749
333.15 K, x2 = 0.1017	762.73	0.754
333.15 K, x2 = 0.1996	756.94	0.759
333.15 K, x2 = 0.2951	751.62	0.763
333.15 K, x2 = 0.4221	744.96	0.771
333.15 K, x2 = 0.5126	740.49	0.775
333.15 K, x2 = 0.6256	735.19	0.781
333.15 K, x2 = 0.7002	731.86	0.787
333.15 K, x2 = 0.7989	727.64	0.794
333.15 K, x2 = 0.9012	723.48	0.803
338.15 K, x2 = 0	765.3	0.708
338.15 K, x2 = 0.1017	758.93	0.712
338.15 K, x2 = 0.1996	753.16	0.716
338.15 K, x2 = 0.2951	747.85	0.721
338.15 K, x2 = 0.4221	741.21	0.728
338.15 K, x2 = 0.5126	736.75	0.733
338.15 K, x2 = 0.6256	731.47	0.738
338.15 K, x2 = 0.7002	728.14	0.742
338.15 K, x2 = 0.7989	723.94	0.749
338.15 K, x2 = 0.9012	719.78	0.756
343.15 K, x2 = 0	761.47	0.67
343.15 K, x2 = 0.1017	755.12	0.674
343.15 K, x2 = 0.1996	749.37	0.678
343.15 K, x2 = 0.2951	744.07	0.682
343.15 K, x2 = 0.4221	737.45	0.687
343.15 K, x2 = 0.5126	733	0.691
343.15 K, x2 = 0.6256	727.73	0.696
343.15 K, x2 = 0.7002	724.41	0.701
343.15 K, x2 = 0.7989	720.22	0.708
343.15 K, x2 = 0.9012	716.08	0.715

Source: the NIST ThermoML archive (doi:10.1021/acs.jced.7b00201)
